Reference: US10815230B2, “Casein kinase 1 delta inhibitor” (ELECTROPHORETICS LIMITED, priority 2015, dated 2020)

Assays:
[1] = target: QSK (Homo sapiens, UniProt Q9Y2K2); assay: KINOMEscan binding assay; conditions: read-out: % Ctrl @ 10000 nM
[2] = target: RPS6KA5 Kin.Dom.1-N-terminal (Homo sapiens, UniProt O75582); assay: KINOMEscan binding assay; conditions: read-out: % Ctrl @ 10000 nM
[3] = target: PLK3 (Homo sapiens, UniProt Q9H4B4); assay: KINOMEscan binding assay; conditions: read-out: % Ctrl @ 10000 nM
[4] = target: NEK5 (Homo sapiens, UniProt Q6P3R8); assay: KINOMEscan binding assay; conditions: read-out: % Ctrl @ 10000 nM
[5] = target: PAK3 (Homo sapiens, UniProt O75914); assay: KINOMEscan binding assay; conditions: read-out: % Ctrl @ 10000 nM
[6] = target: ABL1 (Q252H) phosphorylated (Homo sapiens, UniProt P00519, Q252H); assay: KINOMEscan binding assay; conditions: read-out: % Ctrl @ 10000 nM
[7] = target: MET (M1250T) (Homo sapiens, UniProt P08581, M1250T); assay: KINOMEscan binding assay; conditions: read-out: % Ctrl @ 10000 nM
[8] = target: PIM1 (Homo sapiens, UniProt P11309); assay: KINOMEscan binding assay; conditions: read-out: % Ctrl @ 10000 nM
[9] = in vitro; conditions: human
Description: (§1) The cytotoxicity screening panel was performed by Cyprotex® according to their established protocols. HepG2 cells were plated on 96-well tissue culture treated black walled clear bottomed polystyrene plates, 100 μL per well. The cells were dosed with compound A and comparative compound 324 (WO2012080727; 5-(1,3-benzoxazol-2-yl)-4-(pyridine-4-yl)pyrimidin-2-amine) amine) at […], 0.1 μM, 0.4 μM, 1.0 μM, 4.0 μM, 10 μM, 40 μM and 100 μM. At the end of the incubation period (72 h), the cells were loaded with the relevant dye/antibody for each cell health marker. The plates were then scanned using an automated fluorescent cellular imager, ArrayScan® VTI (Thermo Scientific Cellomics).
(§2) Cytotoxicity was assessed using a multiparametric approach using High Content Screening (HCS) O'Brien P and Haskins J R (2007) High Content Screening: A Powerful Approach to Systems Cell Biology and Drug Discovery Ed. Taylor et al.; 415-425). […] This assay scores compounds across direct and indirect measure of toxicity.

[10] = test system: HepG2 cells; assay: in vitro; conditions: human, 72 h
Description: as §1, §2

[11] = target: FLT1 (Homo sapiens, UniProt P17948); assay: KINOMEscan binding assay; conditions: read-out: % Ctrl @ 10000 nM
[12] = target: STK35 (Homo sapiens, UniProt Q8TDR2); assay: KINOMEscan binding assay; conditions: read-out: % Ctrl @ 10000 nM
[13] = target: CAMK2D (Homo sapiens, UniProt Q13557); assay: KINOMEscan binding assay; conditions: read-out: % Ctrl @ 10000 nM
[14] = target: MRCKA (Homo sapiens, UniProt Q5VT25); assay: KINOMEscan binding assay; conditions: read-out: % Ctrl @ 10000 nM
[15] = target: BMPR1A (Homo sapiens, UniProt P36894); assay: KINOMEscan binding assay; conditions: read-out: % Ctrl @ 10000 nM
[16] = target: MKNK2 (Homo sapiens, UniProt Q9HBH9); assay: KINOMEscan binding assay; conditions: read-out: % Ctrl @ 10000 nM
[17] = target: PRKD2 (Homo sapiens, UniProt Q9BZL6); assay: KINOMEscan binding assay; conditions: read-out: % Ctrl @ 10000 nM
[18] = target: FRK (Homo sapiens, UniProt P42685); assay: KINOMEscan binding assay; conditions: read-out: % Ctrl @ 10000 nM
[19] = target: MEK3 (Homo sapiens, UniProt P46734); assay: KINOMEscan binding assay; conditions: read-out: % Ctrl @ 10000 nM
[20] = target: PRKD1 (Homo sapiens, UniProt Q15139); assay: KINOMEscan binding assay; conditions: read-out: % Ctrl @ 10000 nM
[21] = target: DMPK2 (Homo sapiens, UniProt Q6DT37); assay: KINOMEscan binding assay; conditions: read-out: % Ctrl @ 10000 nM
[22] = target: PRKD3 (Homo sapiens, UniProt O94806); assay: KINOMEscan binding assay; conditions: read-out: % Ctrl @ 10000 nM
[23] = target: PIM3 (Homo sapiens, UniProt Q86V86); assay: KINOMEscan binding assay; conditions: read-out: % Ctrl @ 10000 nM
[24] = target: HIPK4 (Homo sapiens, UniProt Q8NE63); assay: KINOMEscan binding assay; conditions: read-out: % Ctrl @ 10000 nM
[25] = target: ABL1 (Q252H) non-phosphorylated (Homo sapiens, UniProt P00519, Q252H); assay: KINOMEscan binding assay; conditions: read-out: % Ctrl @ 10000 nM
[26] = target: CHEK2 (Homo sapiens, UniProt O96017); assay: KINOMEscan binding assay; conditions: read-out: % Ctrl @ 10000 nM
[27] = target: FLT3-autoinhibited (Homo sapiens, UniProt P36888); assay: KINOMEscan binding assay; conditions: read-out: % Ctrl @ 10000 nM
[28] = target: T1, MAP3K4 (Homo sapiens, UniProt Q9Y6R4); assay: KINOMEscan binding assay; conditions: read-out: % Ctrl @ 10000 nM
T1 construct: T7 phage fusion (most assays) or DNA label after HEK293 expression; purchased DiscoveRx (KINOMEscan, LeadHunter Discovery services); host or cells: T7 phage in E. coli (BL21-derived) or HEK293

[29] = target: RIPK2 (Homo sapiens, UniProt O43353); assay: KINOMEscan binding assay; conditions: read-out: % Ctrl @ 10000 nM
[30] = target: RIOK2 (Homo sapiens, UniProt Q9BVS4); assay: KINOMEscan binding assay; conditions: read-out: % Ctrl @ 10000 nM
[31] = target: NEK11 (Homo sapiens, UniProt Q8NG66); assay: KINOMEscan binding assay; conditions: read-out: % Ctrl @ 10000 nM
[32] = target: CDK3 (Homo sapiens, UniProt Q00526); assay: KINOMEscan binding assay; conditions: read-out: % Ctrl @ 10000 nM
[33] = target: TNK2 (Homo sapiens, UniProt Q07912); assay: KINOMEscan binding assay; conditions: read-out: % Ctrl @ 10000 nM
[34] = target: DDR1 (Homo sapiens, UniProt Q08345); assay: KINOMEscan binding assay; conditions: read-out: % Ctrl @ 10000 nM
[35] = Cell membrane permeability AC50
[36] = Mitochondrial membrane potential AC50

CDK3, sequence (Q00526 whole entry): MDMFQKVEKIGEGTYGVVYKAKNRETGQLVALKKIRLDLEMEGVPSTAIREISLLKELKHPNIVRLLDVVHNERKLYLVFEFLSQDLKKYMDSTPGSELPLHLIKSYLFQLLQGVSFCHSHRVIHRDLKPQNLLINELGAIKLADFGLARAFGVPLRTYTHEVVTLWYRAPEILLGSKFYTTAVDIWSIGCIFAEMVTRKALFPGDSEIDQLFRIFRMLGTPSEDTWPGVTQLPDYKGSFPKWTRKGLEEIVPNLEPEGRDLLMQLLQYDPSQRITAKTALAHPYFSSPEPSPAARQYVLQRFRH
MRCKA, sequence (Q5VT25 whole entry): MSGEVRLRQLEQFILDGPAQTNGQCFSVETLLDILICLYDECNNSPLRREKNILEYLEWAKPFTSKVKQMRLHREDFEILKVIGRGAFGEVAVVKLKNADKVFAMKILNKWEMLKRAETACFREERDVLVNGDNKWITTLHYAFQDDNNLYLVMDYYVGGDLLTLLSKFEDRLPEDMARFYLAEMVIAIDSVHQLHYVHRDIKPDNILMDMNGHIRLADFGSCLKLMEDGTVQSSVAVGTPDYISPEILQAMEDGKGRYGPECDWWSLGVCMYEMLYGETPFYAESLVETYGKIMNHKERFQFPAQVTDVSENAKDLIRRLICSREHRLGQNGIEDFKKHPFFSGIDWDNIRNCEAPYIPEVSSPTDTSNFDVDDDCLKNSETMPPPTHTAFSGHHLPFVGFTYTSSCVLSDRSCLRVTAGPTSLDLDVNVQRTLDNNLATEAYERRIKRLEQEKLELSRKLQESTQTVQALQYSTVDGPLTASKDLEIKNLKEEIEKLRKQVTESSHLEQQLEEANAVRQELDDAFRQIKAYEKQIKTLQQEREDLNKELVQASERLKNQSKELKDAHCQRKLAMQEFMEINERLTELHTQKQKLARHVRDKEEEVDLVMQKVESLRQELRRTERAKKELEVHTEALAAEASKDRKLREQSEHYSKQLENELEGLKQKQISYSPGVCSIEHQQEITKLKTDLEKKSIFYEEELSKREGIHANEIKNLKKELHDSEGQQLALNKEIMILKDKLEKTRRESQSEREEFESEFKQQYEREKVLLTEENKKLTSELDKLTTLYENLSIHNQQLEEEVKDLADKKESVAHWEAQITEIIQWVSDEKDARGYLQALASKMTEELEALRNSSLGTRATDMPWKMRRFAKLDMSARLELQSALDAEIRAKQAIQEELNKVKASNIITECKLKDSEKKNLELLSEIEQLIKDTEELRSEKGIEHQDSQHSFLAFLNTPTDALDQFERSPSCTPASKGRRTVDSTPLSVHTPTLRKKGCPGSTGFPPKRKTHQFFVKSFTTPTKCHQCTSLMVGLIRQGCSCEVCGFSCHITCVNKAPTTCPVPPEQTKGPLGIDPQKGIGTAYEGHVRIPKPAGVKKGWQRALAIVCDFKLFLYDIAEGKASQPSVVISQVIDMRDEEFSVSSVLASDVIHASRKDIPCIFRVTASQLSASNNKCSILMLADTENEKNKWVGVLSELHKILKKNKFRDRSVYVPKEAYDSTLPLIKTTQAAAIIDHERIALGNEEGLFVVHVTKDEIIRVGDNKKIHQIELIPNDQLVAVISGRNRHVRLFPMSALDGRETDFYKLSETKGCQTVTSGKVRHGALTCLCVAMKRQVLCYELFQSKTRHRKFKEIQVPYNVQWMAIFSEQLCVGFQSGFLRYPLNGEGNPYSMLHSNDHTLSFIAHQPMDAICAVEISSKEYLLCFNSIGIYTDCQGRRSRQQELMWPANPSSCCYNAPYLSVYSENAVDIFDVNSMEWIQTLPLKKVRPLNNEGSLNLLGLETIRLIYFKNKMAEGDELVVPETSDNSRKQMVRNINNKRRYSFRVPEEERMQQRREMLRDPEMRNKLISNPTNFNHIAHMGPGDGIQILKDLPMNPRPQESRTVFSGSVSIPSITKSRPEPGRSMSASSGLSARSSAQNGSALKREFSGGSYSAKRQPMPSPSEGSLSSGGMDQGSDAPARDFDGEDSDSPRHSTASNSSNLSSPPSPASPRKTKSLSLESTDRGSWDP
HIPK4, sequence (Q8NE63 whole entry): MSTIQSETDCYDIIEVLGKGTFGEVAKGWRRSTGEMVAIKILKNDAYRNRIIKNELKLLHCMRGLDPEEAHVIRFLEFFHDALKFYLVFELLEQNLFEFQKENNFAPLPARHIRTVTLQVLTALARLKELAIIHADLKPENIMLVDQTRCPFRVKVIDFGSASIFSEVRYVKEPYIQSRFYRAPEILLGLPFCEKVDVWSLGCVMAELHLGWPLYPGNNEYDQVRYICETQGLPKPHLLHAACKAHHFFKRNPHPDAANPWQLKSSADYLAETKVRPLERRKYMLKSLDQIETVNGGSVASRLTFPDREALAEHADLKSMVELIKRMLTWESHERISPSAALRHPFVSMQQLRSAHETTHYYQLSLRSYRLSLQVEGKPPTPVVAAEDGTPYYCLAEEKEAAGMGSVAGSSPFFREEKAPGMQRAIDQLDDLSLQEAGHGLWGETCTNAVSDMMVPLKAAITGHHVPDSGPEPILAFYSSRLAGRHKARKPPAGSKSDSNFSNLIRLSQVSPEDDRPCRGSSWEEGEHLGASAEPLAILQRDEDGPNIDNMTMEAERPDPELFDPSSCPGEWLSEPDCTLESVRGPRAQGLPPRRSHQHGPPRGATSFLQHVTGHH
T1 sequence (Q9Y6R4 whole entry, the tested form may be a part): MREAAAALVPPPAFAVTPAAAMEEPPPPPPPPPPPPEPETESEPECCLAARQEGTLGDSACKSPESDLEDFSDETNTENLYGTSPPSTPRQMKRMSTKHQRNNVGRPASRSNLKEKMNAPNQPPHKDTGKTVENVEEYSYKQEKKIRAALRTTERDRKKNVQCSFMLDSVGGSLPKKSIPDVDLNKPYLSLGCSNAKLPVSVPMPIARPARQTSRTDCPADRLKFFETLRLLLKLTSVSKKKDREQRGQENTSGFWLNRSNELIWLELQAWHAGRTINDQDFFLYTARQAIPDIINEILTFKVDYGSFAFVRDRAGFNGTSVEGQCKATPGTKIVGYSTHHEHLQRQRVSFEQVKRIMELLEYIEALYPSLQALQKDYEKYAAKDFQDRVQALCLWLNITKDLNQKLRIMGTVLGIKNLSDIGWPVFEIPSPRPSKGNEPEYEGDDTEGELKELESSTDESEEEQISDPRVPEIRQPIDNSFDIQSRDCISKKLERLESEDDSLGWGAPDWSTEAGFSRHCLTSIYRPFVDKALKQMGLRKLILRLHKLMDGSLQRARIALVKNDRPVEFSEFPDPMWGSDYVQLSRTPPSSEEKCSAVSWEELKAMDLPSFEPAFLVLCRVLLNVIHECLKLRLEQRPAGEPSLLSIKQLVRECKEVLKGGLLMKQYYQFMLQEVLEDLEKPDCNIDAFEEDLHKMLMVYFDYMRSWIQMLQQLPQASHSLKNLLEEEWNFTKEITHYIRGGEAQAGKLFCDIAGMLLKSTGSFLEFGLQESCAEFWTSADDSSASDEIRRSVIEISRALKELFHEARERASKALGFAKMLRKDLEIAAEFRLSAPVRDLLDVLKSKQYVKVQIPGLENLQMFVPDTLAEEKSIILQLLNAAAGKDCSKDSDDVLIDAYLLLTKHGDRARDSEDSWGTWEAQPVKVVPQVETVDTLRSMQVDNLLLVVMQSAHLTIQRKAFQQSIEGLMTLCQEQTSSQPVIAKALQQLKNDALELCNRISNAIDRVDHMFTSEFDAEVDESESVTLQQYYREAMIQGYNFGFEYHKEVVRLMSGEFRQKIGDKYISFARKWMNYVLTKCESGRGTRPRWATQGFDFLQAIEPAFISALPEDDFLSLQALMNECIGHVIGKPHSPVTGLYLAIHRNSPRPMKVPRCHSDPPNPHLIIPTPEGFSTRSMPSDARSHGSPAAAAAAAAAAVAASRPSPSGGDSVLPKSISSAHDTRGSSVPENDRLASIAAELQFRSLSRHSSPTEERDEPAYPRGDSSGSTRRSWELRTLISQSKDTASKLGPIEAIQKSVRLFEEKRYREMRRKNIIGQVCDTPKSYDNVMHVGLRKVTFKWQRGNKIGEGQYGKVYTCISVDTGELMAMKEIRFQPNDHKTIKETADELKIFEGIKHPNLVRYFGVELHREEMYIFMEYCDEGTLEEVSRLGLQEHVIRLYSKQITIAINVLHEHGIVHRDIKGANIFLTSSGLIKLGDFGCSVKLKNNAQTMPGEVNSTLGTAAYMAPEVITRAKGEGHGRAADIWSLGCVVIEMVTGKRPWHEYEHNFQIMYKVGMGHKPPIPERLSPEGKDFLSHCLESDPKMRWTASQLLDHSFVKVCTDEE
MEK3, sequence (P46734 whole entry): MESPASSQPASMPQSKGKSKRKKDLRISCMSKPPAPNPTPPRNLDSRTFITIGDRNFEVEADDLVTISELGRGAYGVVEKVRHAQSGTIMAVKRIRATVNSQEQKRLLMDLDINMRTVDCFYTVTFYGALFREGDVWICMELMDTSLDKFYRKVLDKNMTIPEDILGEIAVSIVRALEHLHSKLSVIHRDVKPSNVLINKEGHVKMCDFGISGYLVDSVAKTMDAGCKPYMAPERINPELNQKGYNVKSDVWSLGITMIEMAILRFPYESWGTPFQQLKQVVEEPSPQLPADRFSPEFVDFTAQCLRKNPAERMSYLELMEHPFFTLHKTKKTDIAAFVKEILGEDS
RPS6KA5 Kin.Dom.1-N-terminal, sequence (O75582 49-318 limits assumed): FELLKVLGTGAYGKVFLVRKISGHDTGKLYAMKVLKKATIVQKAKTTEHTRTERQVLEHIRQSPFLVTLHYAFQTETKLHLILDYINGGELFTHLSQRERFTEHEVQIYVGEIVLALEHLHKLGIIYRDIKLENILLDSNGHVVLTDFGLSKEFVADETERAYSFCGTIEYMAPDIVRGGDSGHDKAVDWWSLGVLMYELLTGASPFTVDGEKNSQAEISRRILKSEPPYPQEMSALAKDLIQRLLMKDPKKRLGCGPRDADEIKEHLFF

Work on `Nc1ncc(-c2nc3ccccc3o2)c(-c2ccncc2)n1` [Comparative Compound 324, 5-(1,3-benzoxazol-2-yl)-4-(pyridine-4-yl)pyrimidin-2-amine] yielded a remaining binding at 10 µM [1] of 99%, a remaining binding at 10 µM [2] of 95% and a remaining binding at 10 µM [3] of 99%. For the same molecule, the remaining binding at 10 µM [4] was 100%, the remaining binding at 10 µM [5] was 95% and the remaining binding at 10 µM [6] was 100%. The remaining binding at 10 µM [7] was 97%, the remaining binding at 10 µM [8] was 98% and the AC50 at 72 h ([9]; Cell Count AC50) was greater than 100 µM. The AC50 at 72 h [9, 35] was greater than 100 µM, the AC50 at 72 h ([9]; Cytochrome c AC50) was 82 µM and the AC50 at 72 h ([9]; DNA structure AC50) was greater than 100 µM. The AC50 at 72 h ([9]; Mitochondrial mass AC50) was greater than 100 µM, the AC50 at 72 h [9, 36] was greater than 100 µM and the AC50 at 72 h ([9]; Nuclear size AC50) was greater than 100 µM. For the same molecule, the “Cell membrane permeability MEC” value [10] was “(11.1↑) μM”, the “Cytochrome c MEC” value [10] was “(22.2↑) μM” and the “DNA structure MEC” value [10] was “(7.33↑) μM”. The “Mitochondrial mass MEC” value [10] was “(16.8↓) μM”, the “Mitochondrial membrane potential MEC” value [10] was “(17.2↑) μM” and the remaining binding at 10 µM [11] was 91%. For the same molecule, the remaining binding at 10 µM [12] was 100%, the remaining binding at 10 µM [13] was 99% and the remaining binding at 10 µM [14] was 99%. The remaining binding at 10 µM [15] was 100%, the remaining binding at 10 µM [16] was 70% and the remaining binding at 10 µM [17] was 90%. It also gave a remaining binding at 10 µM [18] of 100%, a remaining binding at 10 µM [19] of 80% and a remaining binding at 10 µM [20] of 100%. It also gave a remaining binding at 10 µM [21] of 82%, a remaining binding at 10 µM [22] of 91% and a remaining binding at 10 µM [23] of 94%. The remaining binding at 10 µM [24] was 100%, the remaining binding at 10 µM [25] was 31% and the remaining binding at 10 µM [26] was 100%. It also gave a remaining binding at 10 µM [27] of 95%, a remaining binding at 10 µM [28] of 51% and a remaining binding at 10 µM [29] of 85%. The remaining binding at 10 µM [30] was 87%, the remaining binding at 10 µM [31] was 86% and the remaining binding at 10 µM [32] was 98%. It also gave a remaining binding at 10 µM [33] of 100% and a remaining binding at 10 µM [34] of 94%.
`CNc1c(C(N)=O)c2ccccn2c1C(=O)c1ccc(F)cc1` [Compound A, 2-methyl-amino-3-[(4-fluorophenyl)carbonyl]indolizine-1-carboxamide] gave a remaining binding at 10 µM [1] of 82%, a remaining binding at 10 µM [2] of 96% and a remaining binding at 10 µM [3] of 85%. The remaining binding at 10 µM [4] was 91%, the remaining binding at 10 µM [5] was 75% and the remaining binding at 10 µM [6] was 37%. It also gave a remaining binding at 10 µM [7] of 83%, a remaining binding at 10 µM [8] of 92% and an AC50 at 72 h ([9]; Cell Count AC50) of 7.88 µM. It also gave an AC50 at 72 h [9, 35] greater than 40 µM, an AC50 at 72 h ([9]; Cytochrome c AC50) greater than 100 µM and an AC50 at 72 h ([9]; DNA structure AC50) greater than 100 µM. The AC50 at 72 h ([9]; Mitochondrial mass AC50) was greater than 40 µM, the AC50 at 72 h [9, 36] was 43.4 µM and the AC50 at 72 h ([9]; Nuclear size AC50) was 12.3 µM. For the same molecule, the “Cell Count MEC” value [10] was 2.75↓ μM, the “Cell membrane permeability MEC” value [10] was 1.26↑ μM and the “DNA structure MEC” value [10] was 15.1↑ μM. For the same molecule, the “Mitochondrial mass MEC” value [10] was 1.34↑ μM, the “Mitochondrial membrane potential MEC” value [10] was 3.31↓ μM and the “Nuclear size MEC” value [10] was 2.44↑ μM. It also gave a remaining binding at 10 µM [11] of 91%, a remaining binding at 10 µM [12] of 100% and a remaining binding at 10 µM [13] of 78%. For the same molecule, the remaining binding at 10 µM [14] was 94%, the remaining binding at 10 µM [15] was 100% and the remaining binding at 10 µM [16] was 58%. It also gave a remaining binding at 10 µM [17] of 68%, a remaining binding at 10 µM [18] of 58% and a remaining binding at 10 µM [19] of 60%. It also gave a remaining binding at 10 µM [20] of 100%, a remaining binding at 10 µM [21] of 65% and a remaining binding at 10 µM [22] of 74%. The remaining binding at 10 µM [23] was 90%, the remaining binding at 10 µM [24] was 83% and the remaining binding at 10 µM [25] was 11%. For the same molecule, the remaining binding at 10 µM [26] was 100%, the remaining binding at 10 µM [27] was 87% and the remaining binding at 10 µM [28] was 35%. It also gave a remaining binding at 10 µM [29] of 67%, a remaining binding at 10 µM [30] of 66% and a remaining binding at 10 µM [31] of 88%. The remaining binding at 10 µM [32] was 92%, the remaining binding at 10 µM [33] was 81% and the remaining binding at 10 µM [34] was 2.6%.
